Reference: patent US7291612B2, “Immunomodulatory compounds” (Active Biotech A.B., priority 2002, dated 2007)
Structures can show the parent of a compound that is named as a salt.

biological target: T1, CD80-CD28 interaction (Homo sapiens, UniProt P33681); assay: cell free Homogenous Time Resolved Fluorescence (HTRF) assay, inhibition of the CD80-CD28 interaction; assay type: binding; details: 4 hours at room temperature, read-out: Activity (EC50 in summary form)
T1 construct: mouse Fab fragment (fusion partner)
T1 sequence (P33681 35-242 limits assumed): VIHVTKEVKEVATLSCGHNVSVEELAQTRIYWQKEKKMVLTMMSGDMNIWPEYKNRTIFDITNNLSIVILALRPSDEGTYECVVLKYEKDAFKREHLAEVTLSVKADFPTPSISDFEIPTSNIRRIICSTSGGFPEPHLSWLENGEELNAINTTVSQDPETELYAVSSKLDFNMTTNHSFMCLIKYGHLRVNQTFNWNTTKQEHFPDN
Procedure: The examples described above were tested in a cell free Homogenous Time Resolved Fluorescence (HTRF) assay to determine their activity as inhibitors of the CD80-CD28 interaction.
In the assay, europium and allophycocyanin (APC) are associated with CD28 and CD80 indirectly (through antibody linkers) to form a complex, which brings the europium and APC into close proximity to generate a signal. The complex comprises the following six proteins: fluorescent label 1, linker antibody 1, CD28 fusion protein, CD80 fusion protein, linker antibody 2, and fluorescent label 2. The table below describes these reagents in greater detail.
On formation of the complex, europium and APC are brought into proximity and a signal is generated.
Non-specific interaction was measured by substituting a mouse Fab fragment (C215) for the CD80 mouse Fab fragment fusion protein (1.9 μg/ml). The assay was carried out in black 384 well plates in a final volume of 30 μl. Assay buffer: 50 mM Tris-HCl, 150 mM NaCl pH7.8, containing 0.1% BSA (w/v) added just prior to use.
Compounds were added to the above reagents in a concentration series ranging between 100 μM-1.7 nM. The reaction was incubated for 4 hours at room temperature. Dual measurements were made using a Wallac Victor 1420 Multilabel Counter. First measurement: excitation 340 nm, emission 665 nm, delay 50 μs, window time 200 μs. second measurement: excitation 340 nm, emission 615 nm, delay 50 μs, window time 200 μs. Counts were automatically corrected for fluorescence crossover, quenching and background.

SMILES | EC50
CN(CCCNCC(=O)Nc1ccc(-n2nc3c4cccc(F)c4[nH]cc-3c2=O)cc1)c1ccccc1 [Example 31] | > 10 µM
CN(C)c1ccc(CNCC(=O)Nc2ccc(-n3nc4c5cccc(F)c5[nH]cc-4c3=O)cc2)cc1 [Example 32] | > 10 µM
CCCC(C)C(=O)Nc1ccc(-n2nc3c4ccccc4[nH]cc-3c2=O)cc1 (stereo not shown) [Example 44] | > 10 µM
CCNC(=O)c1cccc(-n2nc3c4cccc(F)c4[nH]cc-3c2=O)c1 [Example 51, N-Ethyl-3-(6-fluoro-3-oxo-3,5-dihydro-pyrazolo[4,3-c]-quinolin-2-yl)-benzamide] | 1 to 10 µM
O=C(NCc1ccccc1)c1cccc(-n2nc3c4cccc(F)c4[nH]cc-3c2=O)c1 [Example 52, N-Benzyl-3-(6-fluoro-3-oxo-3,5-dihydro-pyrazolo[4,3-c]-quinolin-2-yl)-benzamide] | > 10 µM
CN(C)CCCN(C)C(=O)c1cccc(-n2nc3c4cccc(F)c4[nH]cc-3c2=O)c1 [Example 53] | > 10 µM
CN(C)CCCNC(=O)c1cccc(-n2nc3c4cccc(F)c4[nH]cc-3c2=O)c1 [Example 54] | 1 to 10 µM
N[C@H]1CC[C@H](NC(=O)c2cccc(-n3nc4c5cccc(F)c5[nH]cc-4c3=O)c2)CC1 [Example 55] | > 10 µM
O=C(NCCCN1CCCC1)c1cccc(-n2nc3c4cccc(F)c4[nH]cc-3c2=O)c1 [Example 56] | > 10 µM
O=C(NCCCCN1CCCC1)c1cccc(-n2nc3c4cccc(F)c4[nH]cc-3c2=O)c1 [Example 57] | 1 to 10 µM
CN(C)CCCCNC(=O)c1cccc(-n2nc3c4cccc(F)c4[nH]cc-3c2=O)c1 [Example 58] | 1 to 10 µM
COCCNC(=O)c1cccc(-n2nc3c4cccc(F)c4[nH]cc-3c2=O)c1 [Example 59] | 1 to 10 µM
CCN(CC)C(=O)c1cccc(-n2nc3c4cccc(F)c4[nH]cc-3c2=O)c1 [Example 60] | > 10 µM
COC(=O)CNC(=O)c1cccc(-n2nc3c4cccc(F)c4[nH]cc-3c2=O)c1 [Example 61] | > 10 µM
C#CCNC(=O)c1cccc(-n2nc3c4cccc(F)c4[nH]cc-3c2=O)c1 [Example 62] | 1 to 10 µM
CN(Cc1ccccc1)C(=O)c1cccc(-n2nc3c4cccc(F)c4[nH]cc-3c2=O)c1 [Example 63] | 1 to 10 µM
CCOC(=O)C1CCN(C(=O)c2cccc(-n3nc4c5cccc(F)c5[nH]cc-4c3=O)c2)CC1 [Example 64] | > 10 µM
O=C(c1ccc(-n2nc3c4cccc(F)c4[nH]cc-3c2=O)cc1)N1CCCCC1 [Example 67] | 1 to 10 µM
CN(Cc1ccccc1)C(=O)c1ccc(-n2nc3c4cccc(F)c4[nH]cc-3c2=O)cc1 [Example 69] | 1 to 10 µM
O=C(NCCC1=CCCCC1)c1ccc(-n2nc3c4cccc(F)c4[nH]cc-3c2=O)cc1 [Example 75] | 1 to 10 µM
O=C(NCC1CCCCC1)c1ccc(-n2nc3c4cccc(F)c4[nH]cc-3c2=O)cc1 [Example 76] | 1 to 10 µM
CCN(CC)C(=O)c1ccc(-n2nc3c4cccc(F)c4[nH]cc-3c2=O)cc1 [Example 78] | 1 to 10 µM
CCN(CC)CCCCNC(=O)c1ccc(-n2nc3c4ccccc4[nH]cc-3c2=O)cc1 [Example 88] | 1 to 10 µM
CN(C)CCCN(C)C(=O)c1ccc(-n2nc3c4ccccc4[nH]cc-3c2=O)cc1 [Example 89] | 1 to 10 µM
CN(C)CCCNC(=O)c1ccc(-n2nc3c4cccc(F)c4[nH]cc-3c2=O)cc1Cl [Example 90] | 1 to 10 µM
O=C(NCCCN1CCCC1)c1ccc(-n2nc3c4ccccc4[nH]cc-3c2=O)cc1 [Example 91] | 1 to 10 µM
O=C(NCCCN1CCN(Cc2c(F)cccc2Cl)CC1)c1ccc(-n2nc3c4ccccc4[nH]cc-3c2=O)cc1 [Example 92] | 1 to 10 µM
CN1CCN(CCCNC(=O)c2ccc(-n3nc4c5ccccc5[nH]cc-4c3=O)cc2)CC1 [Example 93] | 1 to 10 µM

Now from value to compound:

EC50 | SMILES
1 to 10 µM | COCC(=O)Nc1ccc(-n2nc3c4cccc(F)c4[nH]cc-3c2=O)cc1 [Example 27]
1 to 10 µM | O=C(Nc1ccc(-n2nc3c4cccc(F)c4[nH]cc-3c2=O)cc1)c1ccno1 [Example 28]
< 1 µM | C[N+](C)(C)CCCC(=O)Nc1ccc(-n2nc3c4cccc(F)c4[nH]cc-3c2=O)cc1 [Example 29]
< 1 µM | CN(C)CCCC(=O)Nc1ccc(-n2nc3c4cccc(F)c4[nH]cc-3c2=O)cc1 [Example 30]
< 1 µM | CN1C(C)(C)CC(NCC(=O)Nc2ccc(-n3nc4c5cccc(F)c5[nH]cc-4c3=O)cc2)CC1(C)C [Example 33]
< 1 µM | O=C(CN1CCN(C2CCCCCC2)CC1)Nc1ccc(-n2nc3c4cccc(F)c4[nH]cc-3c2=O)cc1 [Example 34]
< 1 µM | O=C(CNCCCN1CCCC1=O)Nc1ccc(-n2nc3c4cccc(F)c4[nH]cc-3c2=O)cc1 [Example 35]
1 to 10 µM | O=C(CNCCc1ccccn1)Nc1ccc(-n2nc3c4cccc(F)c4[nH]cc-3c2=O)cc1 [Example 36]
1 to 10 µM | O=C(CNC1CCCCNC1=O)Nc1ccc(-n2nc3c4cccc(F)c4[nH]cc-3c2=O)cc1 (stereo not shown) [Example 37]
1 to 10 µM | COC(=O)CC[C@H](N)C(=O)Nc1ccc(-n2nc3c4cccc(F)c4[nH]cc-3c2=O)cc1 [Example 38]
< 1 µM | CN1CCCC1CCNCC(=O)Nc1ccc(-n2nc3c4cccc(F)c4[nH]cc-3c2=O)cc1 (stereo not shown) [Example 39]
1 to 10 µM | O=C(CNCCCn1ccnc1)Nc1ccc(-n2nc3c4cccc(F)c4[nH]cc-3c2=O)cc1 [Example 40]
1 to 10 µM | CC(C)N(CCNCC(=O)Nc1ccc(-n2nc3c4cccc(F)c4[nH]cc-3c2=O)cc1)C(C)C [Example 41]
1 to 10 µM | O=C(CN1CCCCC1)Nc1ccc(-n2nc3c4cccc(F)c4[nH]cc-3c2=O)cc1 [Example 42]
1 to 10 µM | CC(N)C(=O)Nc1ccc(-n2nc3c4ccccc4[nH]cc-3c2=O)cc1 (stereo not shown) [Example 43]
1 to 10 µM | CC(C)C(=O)Nc1ccc(-n2nc3c4ccccc4[nH]cc-3c2=O)cc1 [Example 45]
< 1 µM | CC(N)C(=O)Nc1ccc(-n2nc3c4cccc(F)c4[nH]cc-3c2=O)cc1 (stereo not shown) [Example 46]
1 to 10 µM | CCC(C)C(=O)Nc1ccc(-n2nc3c4ccccc4[nH]cc-3c2=O)cc1 (stereo not shown) [Example 47]

EC50 | SMILES
1 to 10 µM | O=C(CN1CCN(Cc2ccc(F)cc2)CC1)Nc1ccc(-n2nc3c4cccc(F)c4[nH]cc-3c2=O)cc1 [Example 48]
1 to 10 µM | CN(CC(=O)Nc1ccc(-n2nc3c4cccc(F)c4[nH]cc-3c2=O)cc1)Cc1ccccc1 [Example 49]
1 to 10 µM | COCCCNC(=O)c1cccc(-n2nc3c4cccc(F)c4[nH]cc-3c2=O)c1 [Example 50, 3-(6-Fluoro-3-oxo-3,5-dihydro-pyrazolo[4,3-c]quinolin-2-yl)-N-(3-methoxy-propyl)-benzamide]
< 1 µM | CN(C)CCCNC(=O)c1ccc(-n2nc3c4ccccc4[nH]c(C4CC4)c-3c2=O)cc1 [Example 65, N-(3-Dimethylaminopropyl)-4-(4-cyclopropyl-3-oxo-3,5-dihydro-pyrazolo[4,3-c]quinolin-2-yl]-benzamide]
< 1 µM | CN(C)CCCNC(=O)c1ccc(-n2nc3c4cccc(F)c4[nH]cc-3c2=O)cc1 [Example 66, N-(3-Dimethylaminopropyl)-4-(6-fluoro-3-oxo-3,5-dihydro-pyrazolo[4,3-c]quinolin-2-yl]-benzamide hydrochloride]
< 1 µM | O=C(NCc1ccccc1)c1ccc(-n2nc3c4cccc(F)c4[nH]cc-3c2=O)cc1 [Example 68]
< 1 µM | COCCNC(=O)c1ccc(-n2nc3c4cccc(F)c4[nH]cc-3c2=O)cc1 [Example 70]
< 1 µM | CN(C)CCNC(=O)c1ccc(-n2nc3c4cccc(F)c4[nH]cc-3c2=O)cc1 [Example 71]
< 1 µM | COC(=O)CNC(=O)c1ccc(-n2nc3c4cccc(F)c4[nH]cc-3c2=O)cc1 [Example 72]
< 1 µM | COCCCNC(=O)c1ccc(-n2nc3c4cccc(F)c4[nH]cc-3c2=O)cc1 [Example 73]
< 1 µM | CCNC(=O)c1ccc(-n2nc3c4cccc(F)c4[nH]cc-3c2=O)cc1 [Example 77]
< 1 µM | N[C@H]1CC[C@H](NC(=O)c2ccc(-n3nc4c5cccc(F)c5[nH]cc-4c3=O)cc2)CC1 [Example 79]
< 1 µM | CN(C)CCCN(C)C(=O)c1ccc(-n2nc3c4cccc(F)c4[nH]cc-3c2=O)cc1 [Example 80]
< 1 µM | CN(C)CCCCNC(=O)c1ccc(-n2nc3c4cccc(F)c4[nH]cc-3c2=O)cc1 [Example 81]
< 1 µM | O=C(NCCCCN1CCCC1)c1ccc(-n2nc3c4cccc(F)c4[nH]cc-3c2=O)cc1 [Example 82]
< 1 µM | O=C(NCCCN1CCCC1)c1ccc(-n2nc3c4cccc(F)c4[nH]cc-3c2=O)cc1 [Example 83]
< 1 µM | O=C(NCCN1CCN(Cc2ccccc2)CC1)c1ccc(-n2nc3c4cccc(F)c4[nH]cc-3c2=O)cc1 [Example 84]
< 1 µM | CN(C)CCCNC(=O)c1ccc(-n2nc3c4ccccc4[nH]cc-3c2=O)cc1 [Example 86]

same assay, conditions: read-out: EC50

EC50 | SMILES
0.95 µM | C[N+](C)(C)CCCC(=O)Nc1ccc(-n2nc3c4cccc(F)c4[nH]cc-3c2=O)cc1 [Example 29]
0.148 µM | O=C(CNCCCN1CCCC1=O)Nc1ccc(-n2nc3c4cccc(F)c4[nH]cc-3c2=O)cc1 [Example 35]
0.09 µM | O=C(NCCCN1CCCC1)c1ccc(-n2nc3c4cccc(F)c4[nH]cc-3c2=O)cc1 [Example 83]
